What all share (format): cell-based, human
Series [1] has as its system OSCCs. The series can be described thus: Chemo-drug induced cell death, propidium iodide staining and flow cytometry. Conditions: patient-derived differentiated OSCCs. On the procedure: (§1) OSCCs or OSCSCs were seeded at 1×10^5 cells/well in 24-well plate for 24 h prior to the addition of highly purified NK cells pre-treated with IL-2 (1000 units/ml) for 24 h. NK cells were added to tumor cells at 2:1 effector to target ratio. At time 0 when NK cells were added to the tumor culture, a final concentration of 10 μg/ml of propidium iodide (PI) was also added. The cells were then subsequently tracked for over 72 h using time-lapse microscopy with Nikon Eclipse Ti-E inverted microscope fitted with a culture chamber to provide cells with a stable temperature of 37° C. with 5% CO2. An image was taken every 15 min and a representation is shown at day 1, day 1½, and day 3. OSCSCs but not OSCCs which are lysed take up PI and appear orange in the time-lapse (A). NK cells were left untreated or treated with IL-2 (1000 units/ml), anti-CD16 mAb (3 μg/ml), or a combination of IL-2 (1000 units/ml) and anti-CD16 mAb (3 μg/ml) for 18 h before they were added to ^51Cr-labeled OSCSCs and OSCCs. NK cell-mediated cytotoxicity was determined using a standard 4 h ^51Cr release assay and the lytic units 30/10^6 cells were determined using inverse number of NK cells required to lyse 30% of the target cells×100 (B). NK cells were treated as described in (B) and each NK sample was either cultured in the absence or presence of OSCSCs and OSCCs at an NK cell to target cell ratio of 0.5:1. After an overnight incubation, the supernatants were removed from the co-cultures and the levels of IFN-γ secretion were determined using specific ELISAs. One of minimum three representative experiments is shown in each of (C). The surface expression of MHC class I and CD44 on OSCCs and OSCSCs were assessed with flow cytometric analysis after staining with the respective PE-conjugated antibodies. Isotype control antibodies were used as control. The numbers on the right hand corner are the percentages and the mean channel fluorescence intensities for each histogram (D). The surface expression of CD338 on OSCCs and OSCSCs was assessed by flow cytometric analysis after staining with PE-conjugated CD338 (right graphs in the histogram). Isotype control antibodies were used as control (left graphs in the histograms) (E). OSCCs and OSCSCs were left untreated or treated with 10-80 μg/ml of cisplatin for 18 h, after which the tumor cells were washed with 1×PBS, detached, and stained with propidium iodide (PI) and percent cell death was determined using flow cytometric analysis (F).

The test system of series [2] is OSCSCs. The description is as above. The protocol:
as §1

Series [3] concerns MP2 tumors. The series can be described thus: Paclitaxel-induced cell death, propidium iodide staining. Conditions: for cell death: poorly differentiated MP2, 18-20 hours. The protocol: (§2) P-values of <0.05 were obtained for differences between MP2 vs. PL12 and Capan at the concentrations of 10 nM, 200 nM, 600 nM, 1000 nM and […] of Paclitaxel (n=2 per each experimental condition).
(§3) The viability of cells was determined by staining with propidium iodide (n=3/each experimental condition).

In series [4] the test system is PL12 tumors. The series is described as above. To be noted: for cell death: well-differentiated PL12, compared with MP2, 18-20 hours. On the procedure:
as §2

In series [5] the test system is NK-supernatant differentiated MP2 tumors. The series is described as above. Conditions: for cell death: MP2 differentiated with NK-supernatants 5 days, paclitaxel 10 nM to 600 nM, 18-24 h. On the procedure:
as §3

In series [6] the test system is Capan tumors. The description is as above. The protocol:
as §2

In series [7] the test system is MP2 tumors. The series can be described thus: Surface expression of CD44, CD54, MHC-class I and B7H1, flow cytometry. Conditions: rhIFN-γ 200 U/mL, 24 h. On the procedure: (§4) Freshly isolated NK cells were left untreated or treated with IL-2 (1000 U/mL) or the combination of anti-CD16 mAb (3 μg/mL) and IL-2 (1000 U/mL) for 18 h before they were used in co-cultures with ^51Cr labeled MP2, and PL12. NK cell-mediated cytotoxicity was determined using 4-hour ^51Cr release assay, and the lytic units 30/10^6 cells were determined using inverse number of NK cells required to lyse 30% of the target cells×100 (n=5 independent experiments). (FIG. 25A). Cells were left untreated or treated with rhTNF-α (20 ng/mL), rhIFN-γ (200 U/mL) or the combination of rhTNF-α (20 ng/mL) and […] (200 U/mL) for 24 h. Afterwards, the cells were detached and the surface expression of CD44, CD54, MHC-class I and B7H1 were assessed using staining with PE conjugated antibodies followed by flow cytometric analysis. Isotype control antibodies were used as controls (FIG. 25B) MP2 and Capan cells were treated as described in FIG. 25A, and were detached from the tissue culture plates, labeled with ^51Cr and used in a standard 4-hour ^51Cr release assay using IL-2 (1000 U/mL) treated NK cells. Pre-treatment of NK cells with IL-2 (1000 U/mL) were carried out for 18-24 h. Percent cytotoxicity was determined at different effector to target ratio and the lytic units 30/10^6 cells were determined using inverse number of NK cells required to lyse 30% of the tumor cells×100 (FIG. 25C).
(In general: In flow cytometry, cells or beads pass a laser one at a time.)

For series [8], the system named is MP2. Nature of the series: Resistance to NK cell mediated cytotoxicity after cytokine treatment, 4-hour 51Cr release assay. Conditions: rhTNF-α 20 ng/mL or rhIFN-γ 200 U/mL; IL-2 treated NK cells. The protocol: as §4
Where [9] appears, read: stem-like/poorly differentiated OSCSCs, cisplatin 10-80 μg/ml for 18 h in FIG. 1F.

Entries after “also recorded” stand apart in the source; their conditions may differ.

As to `N.N.[Cl][Pt][Cl]` [CDDP, cis-dichlorodiammineplatinum], the cell death entry in series [1] is recorded as “higher cell death”; in series [2] (NK-differentiated OSCSCs), “higher cell death”; in series [2] (setting [9]) it was “not susceptible to CDDP induced cell death; also recorded: minimal effects”; in series [3] it was “resistant”; in series [4], “killed”; in series [5] it was “killed”.
On to `CC(=O)O[C@H]1C(=O)[C@@]2(C)[C@H]([C@H](OC(=O)c3ccccc3)[C@]3(O)C[C@H](OC(=O)[C@H](O)[C@@H](NC(=O)c4ccccc4)c4ccccc4)C(C)=C1C3(C)C)[C@]1(OC(C)=O)CO[C@@H]1C[C@@H]2O` [paclitaxel], for which the cell death result in series [1] is reported as “higher cell death”; in series [2] (NK-differentiated OSCSCs), “higher cell death”; in series [2] (setting [9]), “minimal effects”; in series [3] it was “resistant”; in series [6] (well-differentiated Capan, compared with MP2, 18-20 hours), “much higher levels of cell death; also recorded: higher induction of cell death”; in series [4], “much higher levels of cell death; also recorded: higher induction of cell death; also recorded: killed”. Further, the cell death result in series [5] is reported as “higher induction of cell death; also recorded: killed”.
Take `CC(=O)N[C@@H](CS)C(=O)O` [NAC, N-Acetyl Cysteine]: the “paclitaxel mediated cell death on addition of NAC” value in series [3] (NAC (20 nM) 24 h, followed by paclitaxel) was “increased paclitaxel mediated cell death”; in series [6] (NAC then paclitaxel), “increased paclitaxel mediated cell death”; in series [4] (NAC then paclitaxel) it was “increased paclitaxel mediated cell death”; in series [5] (NAC (20 nM) 24 h, followed by paclitaxel 10 nM to 600 nM), “increased cell death; also recorded: increased paclitaxel mediated death”.
“rhIFN-γ: recombinant human IFN-γ from Biolegend”: the “surface expression of B7H1” value in series [7] is reported as “able to upregulate B7H1”. In addition, the “surface expression of CD44, CD54, MHC-class I and B7H1” value in series [7] (rhTNF-α 20 ng/mL) is “increase surface expression of CD54 and MHC-class I”.

B1: rhIFN-γ: recombinant human IFN-γ from Biolegend (protein, UniProt P01579 24-161, looked up)
Interferon gamma: QDPYVKEAENLKKYFNAGHSDVADNGTLFLGILKNWKEESDRKIMQSQIVSFYFKLFKNFKDDQSIQKSVETIKEDMNVKFFNSNKKKRDDFEKLTNYSVTDLNVQRKAIHELIQVMAELSPAAKTGKRKRSQMLFRG
As for B1, in series [8], the “resistance against NK cell mediated cytotoxicity” value is listed as “significant resistance”.

The values are drawn from patent publication US20220381772A1, “SYSTEMS AND METHODS FOR EVALUATING NK CELLS” (The Regents of The University of California, priority 2019, published 2022).
